Measurements: patent US5625095A, “Process for producing high purity acetic acid” (Daicel Chemical Industries, Ltd., priority 1994, dated 1997)

Key:
[1] = cited from earlier work
[2] = solubility of metaldehyde in methyl iodide, alcohols and their mixtures; assay type: physicochemical; conditions: for recrystallization temperature: bottom products composition
Method: That is, distillation in the presence of alcohols has made it possible to prevent clogging.
It has been confirmed that in the composition of bottom products from the distillation column in the continuous production process for acetic acid, the recrystallization temperature is 18° C. at a methyl iodide/methanol weight ratio of 3/1, 12° C. at 5/4, 6° C. at 3/4, and -9° C. or lower at 1/2. The preferred methyl iodide/methanol weight ratio, which depends on a thermal insulation state, is 5/4 to 1/2.

| Compound | miscibility with water [1] | dissolution in alcohols ([2]; alcohols such as methanol, ethanol, and propanol) | recrystallization temperature ([2]; methyl iodide/methanol weight ratio 1/2) [°C] | recrystallization temperature ([2]; methyl iodide/methanol weight ratio 3/1) [°C] | recrystallization temperature ([2]; methyl iodide/methanol weight ratio 3/4) [°C] | recrystallization temperature ([2]; methyl iodide/methanol weight ratio 5/4) [°C] | order of increasing solubilities ([2]; methyl iodide, acetaldehyde, methanol, mixed solution of methyl iodide and methanol) | solubility ([2]; particularly to methyl iodide) |
| --- | --- | --- | --- | --- | --- | --- | --- | --- |
| CI [methyl iodide] | scarcely miscible | – | – | – | – | – | – | – |
| CC1OC(C)OC(C)OC(C)O1 (stereo not drawn) [metaldehyde] | – | dissolved | ≤ -9 | 18 | 6 | 12 | methyl iodide<<acetaldehyde=methanol<mixed solution of methyl iodide and methanol | low solubility |
| CC=O [acetaldehyde] | well miscible | – | – | – | – | – | – | – |
